Patent publication US20150313913A1, “POSITIVE ALLOSTERIC MODULATORS OF THE GABA-A RECEPTOR IN THE TREATMENT OF AUTISM” (UNIVERSITY OF WASHINGTON THROUGH ITS CENTER FOR …, priority 2013, published 2015)

How the values were obtained:
[1] = tested on: C57BL/6J mice; experiment: Three-chamber social interaction test; assay type: in vivo
From the text: The mouse was allowed to freely explore each chamber.

[2] = tested on: BTBR mice; experiment: Context-dependent fear conditioning test; assay type: in vivo; details: 0.05 mg/kg
From the text: The contextual fear-conditioning chamber was a square arena (25×25 cm) with clear PLEXIGLAS™ walls and a metal grid floor connected to a circuit board that delivered shocks to the metal grid (COULBOURN INSTRUMENTS™). An analog camera was attached on top of the chamber. The camera and the circuit board were connected to a personal computer, and its software (FREEZE FRAME™ 2.0, ACTIMETRICS™) controlled the circuit and recorded the data. The chamber was cleaned with 70% ethanol and wiped with paper towels before each session. In the habituation session, a test mouse was placed in the chamber and allowed to explore for 2 min^66-69. Immediately after habituation, the test mouse received a single mild foot shock (2 s, 0.5 mA). After staying in the chamber one more min, the mouse was removed from the chamber. For the 30-min short-term memory test, the mouse was returned to the context 30 min after the end of the training session. For 24-hr long-term memory test, the mouse was returned to the context 24 hr after the training session. The movement of mice was also recorded by a USB webcam (LIFECAM™ HD-6000, MICROSOFT™) and PC-based video capture software (WINAVI™ Video Capture, ZJ MEDIA DIGITAL TECHNOLOGY™) for 2 min. The recorded video file was further analyzed by off-line video tracking software (ETHOVISION™ XT 7.0, NOLDUS TECHNOLOGY™). The freezing scores were calculated by dividing the test session into 1 min bouts and averaging together all 2 min for each animal. All data shown.
Freezing behavior is defined as the period during which the velocity of the test mouse is less than 1.75 cm/s, and non-freezing behavior is defined as the period during which the velocity of the mouse is greater than 2 cm/s.

[3] = tested on: mouse genetic models of human Dravet syndrome and idiopathic autism; experiment: Summary: low-dose treatment of mouse models of autism; assay type: in vivo, mice; details: low doses that do not induce sedative or anxiolytic effects
From the text: The present disclosure describes methods effective in the rescue or amelioration of autism-like behavior, cognitive deficit, and context-dependent spatial memory.
In particular embodiments, these methods comprise the administration of low doses of a benzodiazepine to a human or other mammalian subject in order to rescue autism-like behavior, cognitive deficit, and context-dependent spatial memory. […] At such low doses, the administration of benzodiazepines, such as CLZ, to mammalian subjects will result in improvement of autism-like behavior, cognitive deficit, and context-dependent spatial learning and memory with much lower levels of sedation compared to mammalian subjects who receive typical higher doses of CLZ or other benzodiazepines that are used for treatment of anxiety, insomnia, or seizure.
The present disclosure is also directed to methods of rescuing or ameliorating indicia of Autism Spectrum disorders, autism-like behavior, cognitive deficit, and context-dependent spatial learning and memory in Dravet syndrome or idiopathic autism with α-2,3-specific GABA-A receptor positive allosteric modifiers. Such α-2,3-subunit selective GABA-A receptor positive allosteric modifiers include L838,417.
Therapeutic approaches to treat autistic traits in animal studies or in clinical trials have primarily focused on reducing excitatory neurotransmission in glutamatergic synapses to rebalance E/I ratio in autistic brain (Michalon et al., 2012; Yang et al., 2012). However, autistic-like behaviors in ASD mouse models are only partially reversed by drugs that inhibit excitatory neurotransmission, and these drugs also have unwanted side effects on wild-type mice (Henderson et al., 2012; Michalon et al., 2012; Yang et al., 2012). To overcome these drawbacks, the inventors focused on the opposing side, the GABAergic inhibitory transmission in autistic brain. Their results highlight the potential for therapy of autistic-like behaviors and cognitive deficit in ASD by low-dose treatment with subunit-selective benzodiazepines and other positive allosteric modulators of GABA-A receptors. […] It is possible that the biphasic dose-response relationship of the positive allosteric modulators reflects their actions on receptors containing α2,3 subunits at low doses and on receptors containing α1 subunits at higher doses.

[4] = tested on: BTBR mice; experiment: Three-chamber social interaction test; details: for social interaction (time with stranger mouse, close interaction), dose series: single i.p. injection 30 min before test, low/increasing doses
Procedure: In the three-chamber test, a test mouse is placed in the center chamber, and the preference of the test mouse for interaction with an inanimate object (a small empty cage) in the left chamber vs. a stranger mouse in an identical cage in the right chamber using a digital camera and quantitative video-tracking analysis.
(§1) The test was performed as described previously (Han et al., 2012) with minor modifications. The threechamber apparatus is a non-transparent Plexiglas box (30×60 cm) with two transparent partitions that make left, center, and right chambers (30×20 cm). In the first 10-min session, a test mouse was placed in the center of the empty three-chamber unit to habituate the test mouse. The mouse was allowed to freely explore each chamber. In the second 10-min session, an age- and gender-matched same strain mouse that had never been exposed to the test mouse, was placed in one of the two wire cages. The empty wire cage as an inanimate object cue was placed on the other side. Then, the test mouse was placed again in the center, and allowed to freely explore the chamber for 10 min. Time spent in each chamber, and time spent within a 5 cm radius proximal to each wire cage, as a close interaction were measured by the videotracking software (EthoVision XT 8.5, Noldus Technology). All data shown are means±s.e.m. and analyzed using two-way ANOVA with Bonferroni's post hoc analysis and one-way ANOVA with Tukey's post hoc analysis.
(§2) L-838,417, and DMCM (Sigma), dissolved in 100% DMSO (sterile, Sigma) was diluted in PBS (the final concentration of DMSO was ranged from 0.005% to 0.1%). Drugs were administered by an intraperitoneal injection in a volume of […] 30 min before the behavioral tests.

[5] = tested on: Scn1a+/− mice; experiment: Three-chamber social preference test; assay type: in vivo; details: low doses, narrow dose range (FIGS. 41N, 41O)
From the text: The mouse was allowed to freely explore each chamber. […] The recorded video file was further analyzed by off-line video tracking software (ETHOVISION™ XT 7.0). […] All data shown are means±s.e.m. and analyzed using two-way ANOVA with Bonferroni's post hoc analysis and one-way ANOVA with Tukey's post hoc analysis.
Oral administration is specifically contemplated for the methods described herein, and is well known for both benzodiazepines and non-BDZ GABA-A enhancers as described herein.
as §1, §2

With Cc1ccc(-c2nc3ccc(C)cn3c2CC(=O)N(C)C)cc1 [zolpidem] the “social behavior, dose series” value ([1]; L-838,417 / zolpidem (FIGS. 45I, 45J)) was “dose-dependently impaired”, the “social behavior at high dose” value ([1]; high dose) was “impaired” and the “long-term (24 h) memory” value [2] was “not long-term memory”. For the same molecule, the “short-term (30 min) memory” value [2] was “enhanced short-term memory”, the “autistic-like behaviors and cognitive deficit in BTBR mice (summary)” value [3] was “opposite effects” and the “social behavior (close interaction)” value ([4]; 0.5 mg/kg) was “made social behavior worse”. For the same molecule, the “sedation / total distance moved during the three-chamber test” value ([4]; dose range up to 0.5 mg/kg (clonazepam: test doses)) was “dose-dependently decreased”, the “total movement during the three-chamber test at high dose” value ([4]; high doses, zolpidem 0.5 mg/kg) was “significantly decreased” and the “effect on social interaction at doses above the maximally effective dose” value ([4]; higher doses) was “aggravated their social interaction deficit at high doses”. The “social interaction (time with stranger mouse, close interaction), dose series” value [4] was “failed to show beneficial effects”, the “social interaction (time with stranger mouse, close interaction), dose series” value ([4]; listed as Zolpidem) was “failed to rescue social deficit” and the “social interactions in three-chamber test” value [5] was “not effective”.
